Test results: paper PMC2933614, “Quantitative in vitro and in vivo pharmacological profile of CE-178253, a potent and selective cannabinoid type 1 (CB1) Receptor Antagonist” (BMC Pharmacology, 2010)

Key:
[1] = target: T1, rat brain membranes (predominantly CB1) (Rattus norvegicus, UniProt P20272); experiment: Competition radioligand binding, rat brain membranes
T1 construct: In rat membranes prepared from whole brain; from tissue; host or cells: rat whole brain membranes
Procedure: (§1) HEK293 (CB1) or CHO (CB1 and CB2) cells (ATCC) were stably transfected with the human CB1 or CB2 receptors. Rat brain, and recombinant CB1 and CB2 and membranes were prepared as described. A Pierce™ BCA kit was used to determine protein concentrations.
(§2) 10 μg of membranes per well from human CB1 and CB 2 receptor transfected cells and rat brain was used in the assay. The plates were covered and placed in an incubator at 30°C for 60 min. At the end of the incubation period 125 μl of stop buffer (10% BSA plus TME) was added to the reaction plate. The plates were then harvested onto GF/C filter plates (Perkin Elmer Life Sciences) presoaked in BSA (5 mg/ml) plus TME. Each filter was washed twice with TME and dried overnight. In the morning the filters were counted on a Wallac Trilux™ counter.
(§3) Saturation and competition radioligand binding assays were used to characterize membranes prepared from human recombinant CB1 and CB2 and rat brain membranes.

[2] = target: T2, human CB2 receptor (Homo sapiens, UniProt P34972); experiment: Competition radioligand binding, human CB2
T2 construct: expressed in transfected cells
T2 sequence (P34972 whole entry): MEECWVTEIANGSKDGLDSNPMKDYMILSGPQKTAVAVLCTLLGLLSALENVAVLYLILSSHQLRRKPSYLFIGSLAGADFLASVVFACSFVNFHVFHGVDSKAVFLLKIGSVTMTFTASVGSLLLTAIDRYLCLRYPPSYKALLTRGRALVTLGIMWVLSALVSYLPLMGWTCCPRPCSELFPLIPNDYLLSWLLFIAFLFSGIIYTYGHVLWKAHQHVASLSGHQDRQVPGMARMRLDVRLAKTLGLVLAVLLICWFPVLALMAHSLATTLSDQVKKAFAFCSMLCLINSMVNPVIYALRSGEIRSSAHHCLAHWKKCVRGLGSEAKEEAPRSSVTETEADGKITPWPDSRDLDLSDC
Procedure: as §1, §2, §3

[3] = target: T3, human CB1 in CHO cells (Homo sapiens, UniProt P21554); experiment: GTPγ[35S] functional assay, antagonism of CP-55940 stimulation, Schild analysis; type: biochemical
T3 construct: expressed in transfected cells
T3 sequence (P21554 whole entry): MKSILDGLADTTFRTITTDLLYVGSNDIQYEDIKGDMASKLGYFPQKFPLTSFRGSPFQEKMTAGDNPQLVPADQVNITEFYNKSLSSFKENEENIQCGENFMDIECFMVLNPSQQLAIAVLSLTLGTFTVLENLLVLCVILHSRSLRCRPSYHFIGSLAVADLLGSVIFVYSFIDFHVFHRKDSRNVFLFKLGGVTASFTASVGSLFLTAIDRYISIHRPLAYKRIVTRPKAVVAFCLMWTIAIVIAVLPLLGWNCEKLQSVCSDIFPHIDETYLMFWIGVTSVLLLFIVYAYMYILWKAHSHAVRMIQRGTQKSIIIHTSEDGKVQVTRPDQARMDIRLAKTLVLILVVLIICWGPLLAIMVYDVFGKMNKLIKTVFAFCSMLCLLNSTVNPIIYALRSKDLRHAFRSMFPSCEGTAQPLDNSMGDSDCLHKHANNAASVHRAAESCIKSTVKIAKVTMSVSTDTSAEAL
Procedure: GTPγ[^35S] binding assays were performed as described. GTPγ[^35S] binding assays were performed in a 96-well FlashPlate™ format in duplicate using 100 pM GTPγ[^35S] and 10 μg membrane per well in assay buffer composed of 50 mM Tris HCl (pH 7.4); 3 mM MgCl2 (pH 7.4); 10 mM MgCl2, 20 mM EGTA, 100 mM NaCl, 30 μM GDP, 0.1% BSA and the following protease inhibitors: 100 μg/ml bacitracin, 100 μg/ml benzamidine, 5 μg/ml aprotinin, and 5 μg/ml leupeptin. […] Assays were performed at 30°C for 1 hr. The FlashPlates™ were then centrifuged at 2000×g for 10 min. Stimulation of GTPγ[^35S] binding was then quantified using a Wallac Microbeta® [16].
as §3

[4] = system: other receptors, ion channels, and uptake sites (Table 2); experiment: Binding panel at 1 μM; conditions: any site of Table 2
Description: Rimonabant also binds weakly to the Vanilloid 1 (TRPV1) receptor channel. […] CE-178253 was not evaluated against TRPM8. Rimonabant has been reported to bind to TRPM8 [21].

[5] = Spontaneous nocturnal food intake; type: in vivo, rat; conditions: for Decrease in FI compared to veh.: 2 hr time point
Description: All animal studies were approved by the Institutional Animal Care and Use Committee. Male Sprague Dawley rats on normal chow (8 weeks old, 250-300 g on arrival, 300-350 g on test day) were obtained from Charles River. After arrival, animals were individually housed and placed on powdered rat chow. Rats were maintained on a 12-hr light/dark cycle and received food and water ad libitum. In all studies CE-178253 and veh (0.5% methyl cellulose) administration to rats and mice was by oral gavage.
For the spontaneous, nocturnal FI assay, rats were administered veh. (0.5% methyl cellulose) or CE-178253 30 min prior to the start of the dark phase. Food consumption was monitored with electronic scales, and consumption was recorded every 10 min for 12 hr using an automated FI system (Columbus Instruments, Columbus, OH).
The first FI model used for determining anorectic efficacy of CE-178253 was spontaneous nocturnal feeding in rats. In rodents, most feeding activity takes place during the dark phase (nocturnal feeding cycle). In this model, male S-D rats were orally administered compound 30 min prior to the onset of the nocturnal phase. […] In addition, the effect of treatment on hourly FI was also assessed. […] No other time points in the interval analysis reach statistical significance. […] Cumulative food intake at the 2.5 hr time point was 3.2 ± 0.3, 2.4 ± 0.2, 0.5 ± 0.1 and 0.2 ± 0.1 in the veh, 0.3 mg/kg, 1 mg/kg, 3 mg/kg treated rats, respectively.

[6] = Core body temperature; type: in vivo, mouse; conditions: C57BL/6J mice, n = 5 per group
Procedure: In a separate study, core body temperature was measured in C57BL/6J mice.

[7] = Ten day DIO mouse food intake and body weight study; type: in vivo; conditions: 10-day, DIO mice
Procedure: Male, 14 week old C57/Bl6/6J mice which had been maintained on a high fat diet (45% kcal from fat) for 6 weeks were selected for the DIO weight loss study. The animals body weights ranged at least 5 standard deviations from age-matched chow-fed control animals mean body weight. Mice were singly housed. The mean starting weight of all animals was 38.9 ± 0.5 g. On Day 0, mice were randomly assigned to treatment groups (n = 10 per group). Mice were dosed daily over 10 days, starting approximately at 30 minutes before the start of the 12 hr dark cycle. BW and food intake were recorded daily.
DIO mice were treated once daily with veh. (0.5% MC) or CE-178253 at 1 mg/kg or 3 mg/kg, p.o., in a 10-day study (Figures 8A and 8B). […] The lower dose of CE-178253 (1 mg/kg, p.o.) provided for a non-significant 8% reduction in FI, whereas the 3 mg/kg dose led to a significant 31% reduction in cumulative FI. As with other CB1 receptor antagonists, the food intake reduction was maximal over the first five days and declined over time (Figure 8A). However, FI reductions were still evident on the final day of dosing at the high dose. […] The high dose group (3 mg/kg) lost, on average 18% BW.

[8] = system: central CB1 receptor-driven responses; set-up: method as in PMID 17630359; conditions: cited from earlier work

T1 sequence (P20272 whole entry): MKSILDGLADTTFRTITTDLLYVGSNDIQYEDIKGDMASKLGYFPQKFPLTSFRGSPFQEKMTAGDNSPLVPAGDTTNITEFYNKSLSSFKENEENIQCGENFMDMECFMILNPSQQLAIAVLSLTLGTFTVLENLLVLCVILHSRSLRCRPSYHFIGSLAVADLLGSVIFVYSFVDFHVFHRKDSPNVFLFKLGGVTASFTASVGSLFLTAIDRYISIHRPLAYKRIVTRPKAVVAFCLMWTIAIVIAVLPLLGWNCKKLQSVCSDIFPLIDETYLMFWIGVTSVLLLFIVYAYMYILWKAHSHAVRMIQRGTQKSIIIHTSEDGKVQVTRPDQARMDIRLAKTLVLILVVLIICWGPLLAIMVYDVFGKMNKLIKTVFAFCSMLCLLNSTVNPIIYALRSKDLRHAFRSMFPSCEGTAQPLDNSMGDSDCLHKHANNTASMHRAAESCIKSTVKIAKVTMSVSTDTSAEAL

CCNC1(C(N)=O)CN(c2nc(C)nc3c(-c4ccc(Cl)cc4)c(-c4ccccc4Cl)nn23)C1 [CE-178253]
Ki [1]: 0.43 ± 0.13 nM
Ki ([2]; [3H]CP-55940, ± SEM (n), read-out: Ki, competition binding, hCB2): 15700 ± 6170 nM
Selectivity (hCB2 vs hCB1 binding Ki) ([2]; difference in binding Ki values): > 30,000 fold
Kb ([3]; GTPγ[35S] assay): 0.63 nM
Slope ([3]; GTPγ[35S] functional assay, Schild slope): 0.83
Ki ([3]; inhibition of CP-55940-stimulated GTPγ[35S] binding, read-out: Antagonist Ki, GTPγ[35S] functional assay): 0.07 ± 0.01 nM
Inhibition of binding at panel sites [4]: ≤ 50%
Decrease in FI compared to veh. ([5]; 0.3 mg/kg p.o.): 25%
Decrease in FI compared to veh. ([5]; 1 mg/kg p.o.): 84%
Decrease in FI compared to veh. ([5]; 3 mg/kg p.o.): 94%
EC50 ([5]; Rattus norvegicus, unbound plasma concentration (Cave, fu, p, 0-2.5 hr), cumulative FI at 2.5 hr post dose, read-out: Unbound EC50, reduction of food intake): 0.5 nM
Increase in core body temperature compared to veh ([6]; 1 mg/kg): 0.7 ± 0.3 °C
Increase in core body temperature compared to veh ([6]; 3 mg/kg): 1.2 ± 0.3 °C
Reduction in cumulative FI ([7]; 1 mg/kg p.o. once daily, non-significant): 8%
BW lost, on average ([7]; 3 mg/kg p.o. once daily): 18%
Reduction in cumulative FI ([7]; 3 mg/kg p.o. once daily, significant): 31%
Effect on CP-55940 responses in all four components of the tetrad [8]: dose-dependently reversed
